# Test results reported in US5017604A, “Novel fenamic acid methyl hydroxamate derivatives having cyclooxygenase and 5-lipoxygenase inhibition” (Warner-Lambert Company, priority 1990, dated 1991).
# How the values were obtained:
# Format in all cases: cell-based
# 5-lipoxygenase [1] = biological target: T1, 5-lipoxygenase (Rattus norvegicus, UniProt P12527); assay: ARBL whole cell 5-lipoxygenase assay (RBL-1 cells, LTB4 formation by RIA); conditions: RBL-1 whole cells; for inhibition at 10 µM / inhibition at 16 µM: read-out: ARBL % inhibition at the given micromolar concentration (LTB4 formation); for IC50: A23187 5 μM, read-out: ARBL IC50 (50% inhibition of LTB4 formation)
# T1 construct: host or cells: RBL-1 (rat basophilic leukemia) cells
# T1 sequence (P12527 1-673): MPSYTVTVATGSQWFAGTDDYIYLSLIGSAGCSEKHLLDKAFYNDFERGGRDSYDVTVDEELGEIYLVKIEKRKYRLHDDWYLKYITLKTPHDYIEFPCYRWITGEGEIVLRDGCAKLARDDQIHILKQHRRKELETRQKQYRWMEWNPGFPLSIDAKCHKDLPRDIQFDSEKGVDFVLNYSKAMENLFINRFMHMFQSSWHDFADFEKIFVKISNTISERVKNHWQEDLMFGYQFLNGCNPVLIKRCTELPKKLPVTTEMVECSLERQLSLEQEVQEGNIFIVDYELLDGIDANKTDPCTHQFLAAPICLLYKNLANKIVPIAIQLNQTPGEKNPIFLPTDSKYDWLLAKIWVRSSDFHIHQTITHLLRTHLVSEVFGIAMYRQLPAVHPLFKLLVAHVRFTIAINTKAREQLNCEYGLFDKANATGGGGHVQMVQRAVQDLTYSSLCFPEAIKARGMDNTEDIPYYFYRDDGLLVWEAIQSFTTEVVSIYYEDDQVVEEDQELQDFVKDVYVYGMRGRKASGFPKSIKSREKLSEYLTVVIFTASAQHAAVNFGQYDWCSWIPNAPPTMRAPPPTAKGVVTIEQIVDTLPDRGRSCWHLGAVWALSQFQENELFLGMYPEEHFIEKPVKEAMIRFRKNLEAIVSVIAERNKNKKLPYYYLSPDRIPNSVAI
# Procedure: (§1) ARBL/ARBC Whole Cell 5-Lipoxygenase and Cyclooxyqenase Assays
# (§2) The rat basophilic leukemia cell line (RBL-1) was obtained from the American Type Culture Collection (Rockville, Md.).
# (§3) Radioimmunoassay (RIA) kits for LTB4 and PGF2α determination were obtained from Amersham (Arlington Heights, Ill.) and Seragen (Boston, Mass.), respectively.
# (§4) RBL-1 cells are grown in suspension culture in Eagle's minimum essential medium supplemented with 12% fetal bovine serum at 37° C. in an incubator supplied with air-5% carbon dioxide. Cells are harvested by centrifugation. They are washed with cold phosphate buffered saline pH 7.4 (PBS; NaCl, 7.1 g; Na2 HPO4, 1.15 g; KH2 PO4, 0.2 g; and KCl, 0.2 g/L). Cells are finally suspended in PBS containing 1.0 mM calcium at a density of 2×10^6 cells/mL. Cells are incubated with and without test agent (in DMSO) (1% DMSO is without effect on arachidonic acid metabolism) for 10 minutes at room temperature. Calcium inonophore A23187 (5 μM) is added and cells are incubated for 7 minutes at 37° C. The reaction is stopped by chilling the tubes on ice for 10 minutes. Cells are separated by centrifugation and the supernatant is stored at -20° . Aliquots (100 μL) are analyzed for LTB4 and PGF2α using radioimmunoassay kits as provided by the supplier.
# (§5) Table 1 contains biochemical data obtained from this whole cell assay as IC50 s which are calculated as the concentration of test compound causing 50% inhibition of LTB4 or PGF2α formation or in percent inhibition at the given micromolar concentration. N at 10 or 16 is not active at 10 μmolar or 16 μmolar.
# cyclooxygenase [2] = biological target: T2, cyclooxygenase (Rattus norvegicus, UniProt Q63921); assay: ARBC whole cell cyclooxygenase assay (RBL-1 cells, PGF2α formation by RIA); parameters: key: N @ 10 μmolar is not active at 10 μmolar; conditions: RBL-1 whole cells; @ 10 μM
# T2 construct: host or cells: RBL-1 (rat basophilic leukemia) cells
# T2 sequence (Q63921 27-602): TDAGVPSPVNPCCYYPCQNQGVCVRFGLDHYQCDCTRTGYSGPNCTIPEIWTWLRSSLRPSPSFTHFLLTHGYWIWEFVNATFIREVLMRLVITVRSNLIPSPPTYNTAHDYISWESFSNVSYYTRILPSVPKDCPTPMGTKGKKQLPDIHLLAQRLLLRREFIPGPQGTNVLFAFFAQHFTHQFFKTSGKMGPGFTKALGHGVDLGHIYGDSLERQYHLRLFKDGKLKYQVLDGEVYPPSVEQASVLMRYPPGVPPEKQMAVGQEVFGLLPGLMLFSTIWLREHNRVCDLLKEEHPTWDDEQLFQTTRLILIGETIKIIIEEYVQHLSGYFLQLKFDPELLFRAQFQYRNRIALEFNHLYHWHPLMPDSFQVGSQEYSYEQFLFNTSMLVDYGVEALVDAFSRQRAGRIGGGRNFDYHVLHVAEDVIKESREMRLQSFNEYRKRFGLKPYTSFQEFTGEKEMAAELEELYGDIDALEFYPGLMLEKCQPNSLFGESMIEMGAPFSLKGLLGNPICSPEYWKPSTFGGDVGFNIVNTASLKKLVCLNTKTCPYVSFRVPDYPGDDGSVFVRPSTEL
# Procedure: as §1, §2, §3
# as §4, with “supplier. […]” for “supplier.”
# cyclooxygenase [3] = biological target: T2, cyclooxygenase; assay: as above; conditions: RBL-1 whole cells; for IC50: A23187 5 μM, read-out: ARBC IC50 (50% inhibition of PGF2α formation)
# Procedure: as §1, §2, §3, §4, §5
# cyclooxygenase [4] = biological target: T2, cyclooxygenase; assay: as above; parameters: key: N @ 16 μmolar is not active at 16 μmolar; conditions: RBL-1 whole cells; @ 16 μM
# Procedure: as §1, §2, §3, §4, §5
# 5-lipoxygenase [5] = biological target: T1, 5-lipoxygenase; assay: ARBL whole cell 5-lipoxygenase assay (RBL-1 cells, LTB4 formation by RIA); parameters: key: N @ 10 μmolar is not active at 10 μmolar; conditions: RBL-1 whole cells; @ 10 μM
# Procedure: as §1, §2, §3, §4, §5
# 5-lipoxygenase [6] = biological target: T1, 5-lipoxygenase; assay: as above; parameters: key: N @ 16 μmolar is not active at 16 μmolar; conditions: RBL-1 whole cells; @ 16 μM
# Procedure: as §1, §2, §3, §4, §5
# [7] = read-out: ARBC % inhibition at the given micromolar concentration (PGF2α formation)
smiles,measurement,setting,value
"COC(=O)c1ccccc1Nc1cccc(C(C)N(O)C(C)=O)c1Cl (stereo not drawn) [Example 33, 2-[[3-[1-(acetylhydroxyamino)ethyl]-2-chlorophenyl]amino]benzoic acid methyl ester]",inhibition at 10 µM,5-lipoxygenase [1],100%
same,ARBC activity (N = not active),cyclooxygenase [2],N
COC(=O)c1ccccc1Nc1cccc(CN(O)C(C)=O)c1C [Example 34],IC50,5-lipoxygenase [1],< 62.5 nM
same,IC50,cyclooxygenase [3],10000 nM
COC(=O)c1ccccc1Nc1cccc(C(C)N(O)C(C)=O)c1C (stereo not drawn) [Example 35],inhibition at 10 µM,5-lipoxygenase [1],100%
same,ARBC activity (N = not active),cyclooxygenase [2],N
COC(=O)c1ccccc1Nc1c(C)ccc(C(C)N(O)C(C)=O)c1C (stereo not drawn) [Example 36],ARBC activity (N = not active),cyclooxygenase [4],N
same,inhibition at 16 µM,5-lipoxygenase [1],100%
COC(=O)c1ccccc1Nc1cccc(CN(O)C(C)=O)c1Cl [Example 37],IC50,5-lipoxygenase [1],580 nM
same,IC50,cyclooxygenase [3],4300 nM
COC(=O)c1ccccc1Nc1c(Cl)ccc(CN(O)C(C)=O)c1Cl [Example 38],IC50,5-lipoxygenase [1],360 nM
same,IC50,cyclooxygenase [3],6000 nM
COC(=O)c1ccccc1Nc1c(Cl)ccc(C(C)N(O)C(C)=O)c1Cl (stereo not drawn) [Example 39],inhibition at 10 µM,5-lipoxygenase [1],100%
same,inhibition at 10 µM,cyclooxygenase [3]; [7],52%
"CCOC(=O)N(O)Cc1cccc(Nc2ccccc2C(=O)OC)c1Cl [Example 40, 2-[[2-chloro-3-[[(ethoxycarbonyl)hydroxyamino]methyl]phenyl]amino]benzoic acid, methyl ester]",IC50,5-lipoxygenase [1],210 nM
same,IC50,cyclooxygenase [3],670 nM
"CCOC(=O)N(O)Cc1cccc(Nc2ccccc2C(=O)OC)c1C [Example 41, 2-[[3-[[(Ethoxycarbonyl)hydroxyamino]methyl]-2-methylphenyl]amino]benzoic acid methyl ester]",IC50,5-lipoxygenase [1],390 nM
same,IC50,cyclooxygenase [3],8700 nM
CCOC(=O)N(O)Cc1ccc(Cl)c(Nc2ccccc2C(=O)OC)c1Cl [Example 42],IC50,5-lipoxygenase [1],330 nM
same,IC50,cyclooxygenase [3],3700 nM
CCOC(=O)N(O)C(C)c1ccc(C)c(Nc2ccccc2C(=O)OC)c1C (stereo not drawn) [Example 43],ARBC activity (N = not active),cyclooxygenase [4],N
same,inhibition at 16 µM,5-lipoxygenase [1],100%
"CNC(=O)N(O)Cc1cccc(Nc2ccccc2C(=O)OC)c1C [Example 44, 2-[[3-[[Hydroxy[(methylamino)carbonyl]amino]methyl]-2-methylphenyl]amino]benzoic acid methyl ester]",inhibition at 16 µM,5-lipoxygenase [1],> 95%
same,inhibition at 16 µM,cyclooxygenase [3]; [7],43%
"CNC(=O)N(O)Cc1cccc(Nc2ccccc2C(=O)OC)c1Cl [Example 46, 2-[[2-Chloro-3-[[hydroxy[(methylamino)carbonyl]amino]methyl]phenyl]amino]benzoic acid methyl ester]",IC50,5-lipoxygenase [1],360 nM
same,IC50,cyclooxygenase [3],4700 nM
CC(=O)N(O)C(C)c1cccc(Nc2ccccc2C(=O)O)c1Cl (stereo not drawn) [Example 47],inhibition at 10 µM,cyclooxygenase [3]; [7],79%
same,ARBL activity (N = not active),5-lipoxygenase [5],N
CC(=O)N(O)Cc1cccc(Nc2ccccc2C(=O)O)c1C [Example 48],IC50,cyclooxygenase [3],1900 nM
same,ARBL activity (N = not active),5-lipoxygenase [5],N
CCOC(=O)N(O)Cc1cccc(Nc2ccccc2C(=O)O)c1C [Example 49],ARBL activity (N = not active),5-lipoxygenase [6],N
same,inhibition at 0.25 µM,"cyclooxygenase [3]; @ 0.25 μM, read-out: ARBC % inhibition at the given micromolar concentration (PGF2α formation)",67%
CNC(=O)N(O)Cc1cccc(Nc2ccccc2C(=O)O)c1C [Example 50],ARBL activity (N = not active),5-lipoxygenase [6],N
same,inhibition at 16 µM,cyclooxygenase [3]; [7],56%
CC(=O)N(O)C(C)c1cccc(Nc2ccccc2C(=O)O)c1C (stereo not drawn) [Example 51],ARBL activity (N = not active),5-lipoxygenase [6],N
same,inhibition at 10 µM,cyclooxygenase [3]; [7],70%
CC(=O)N(O)C(C)c1ccc(C)c(Nc2ccccc2C(=O)O)c1C (stereo not drawn) [Example 52],ARBL activity (N = not active),5-lipoxygenase [6],N
same,ARBC activity (N = not active),cyclooxygenase [4],N
CCOC(=O)N(O)C(C)c1ccc(C)c(Nc2ccccc2C(=O)O)c1C (stereo not drawn) [Example 53],ARBL activity (N = not active),5-lipoxygenase [6],N
same,inhibition at 16 µM,cyclooxygenase [3]; [7],53%
CC(=O)N(O)Cc1cccc(Nc2ccccc2C(=O)O)c1Cl [Example 54],inhibition at 10 µM,cyclooxygenase [3]; [7],87%
same,ARBL activity (N = not active),5-lipoxygenase [5],N
CC(=O)N(O)Cc1ccc(Cl)c(Nc2ccccc2C(=O)O)c1Cl [Example 55],inhibition at 10 µM,cyclooxygenase [3]; [7],83%
same,ARBL activity (N = not active),5-lipoxygenase [5],N
CCOC(=O)N(O)Cc1ccc(Cl)c(Nc2ccccc2C(=O)O)c1Cl [Example 56],inhibition at 16 µM,5-lipoxygenase [1],47%
same,inhibition at 16 µM,cyclooxygenase [3]; [7],89%
CC(=O)N(O)C(C)c1ccc(Cl)c(Nc2ccccc2C(=O)O)c1Cl (stereo not drawn) [Example 57],inhibition at 10 µM,cyclooxygenase [3]; [7],53%
same,ARBL activity (N = not active),5-lipoxygenase [5],N
